The assay relates to mice subjected to controlled cortical impact injury. Description: Fluoro-Jade B staining of degenerating neurons. The assay is classed as in vivo. The note with it: day 1. As for the experimental part: All animal procedures were approved by the Animal Research Committee at Cheng Hsin General Hospital (Animal permit number […] 101-08), and all procedures complied with the Guide for the Care and Use of Laboratory Animals published by the US National Institutes of Health (NIH Publication No. 85-23, revised 1996). Animals were housed under a 12-h light/dark cycle and at constant temperature (21-25°C) and humidity (45-50%). They were allowed free access to pellet chow and water. TBI in mice was induced by a CCI injury model as previously described. Briefly, 8-week-old male C57BL/6 mice (weighing 22-25 g) were anesthetized through the use of intraperitoneal injection of sodium pentobarbital (65 mg/kg; Rhone Merieux, Harlow, UK) and placed in a stereotaxic frame. A 5 mm craniotomy was performed over the right parietal cortex, centered on the coronal suture and 0.1 mm lateral to the sagittal suture, and injury to dura was avoided. Injury was induced using a pneumatic piston with a rounded metal tip (2.5 mm diameter) that was angled 22.5° to the vertical so that the tip was perpendicular with the brain surface at the center of the craniotomy. The impact, with a velocity of […] and a deformation depth of 2 mm below the dura, was applied. The bone flap was immediately replaced and sealed, and the scalp was sutured. Body temperature was monitored throughout the surgery by a rectal probe; temperature was maintained at 37.0±0.5°C using a heated pad. Mice were placed in a heated cage to maintain body temperature, while recovering from anesthesia. Sham-operated mice underwent the same procedure as injured mice, but without CCI. Three sets of experiments were performed. The first set was to investigate the protective effects of salidroside. All animals were randomized into 1 of 3 groups (sham injury, CCI + vehicle, CCI + SALD 20). Surgery/injury, behavioral testing, and tissue analyses were performed by different individuals. Behavioral testing and tissue analyses were performed by individuals blinded to the treatment group. Salidroside (Cayman Chemical, Ann Arbor, MI, USA) dissolved in normal saline (0.25 mL) or a corresponding volume of vehicle (saline) was administered intraperitoneally 10 min following injury. Testing after injury was completed as follows: 1) behavioral testing at days 1, 4, 7, 14, 21, and 28 (n = 8-10 mice/group); 2) cresyl violet staining at day 28 (n = 9 mice/group); 3) histology, determination of brain water content, and western blot analysis at day 1 or 3 (n = 5-6 mice/group). To determine the optimal dose of salidroside, a pilot study was performed using 2 different doses (20 and 50 mg/kg) administered 10 min after injury, and neurological deficits and tissue damage were evaluated as the main outcomes. […] The second set of experiment was to assess the effect of the inhibition of PI3K/Akt with the specific PI3K inhibitor, LY294002 (Cell Signaling Technology, Danvers, MA, USA), on salidroside effects. Animals were randomized into 4 groups. Mice received either: 1) icv pretreatment of LY294002 followed by SALD 20 after CCI (S20Y group); or 2) icv pretreatment of saline (vehicle control) followed by SALD 20 after CCI (S20V group). 3) Mice were infused icv with saline and were subjected to sham injury. 4) Mice were infused icv with LY294002 and were subjected to sham injury. Testing after injury was completed as follows: 1) cresyl violet staining at day 28 (n = 6 mice/group); 2) western blot analysis at day 1 (n = 6 mice/group). The third set of experiment was performed to examine the neuroprotective time window afforded by salidroside. Mice received intraperitoneal SALD 20 or vehicle (saline) at 3 or 6 h following CCI and were sacrificed 1 day later for FJB staining and western blot analysis (n = 6 mice/group). […]

Structures are written as SMILES.

As to `OC[C@H]1O[C@@H](OCCc2ccc(O)cc2)[C@H](O)[C@@H](O)[C@@H]1O` [SALD, salidroside], the “FJB-positive neurons around the injured cortical area” value reads like this: (20 mg/kg ip 10 min after CCI, vehicle 87.9±5.9, P<0.01) 55.1±6.9 cells/field; (20 mg/kg ip 3 h after injury, vehicle 91.2±3.3, P<0.001) 71.2±2.7 cells/field; (20 mg/kg ip 6 h after injury, vehicle 92.9±3.3, P<0.001) 71.7±1.6 cells/field. For the same compound, where the note is “20 mg/kg ip 10 min after injury”, the “reduction of the number of FJB-positive neurons” value is recorded as 37.3%. Also, the “reduction of neuronal damage (FJB)” value (20 mg/kg ip 3 h after injury) was determined as 21.9% and the “reduction of neuronal damage (FJB)” value (20 mg/kg ip 6 h after injury) was 22.8%.

The values are drawn from article PMC3454376, “Salidroside Improves Behavioral and Histological Outcomes and Reduces Apoptosis via PI3K/Akt Signaling after Experimental Traumatic Brain Injury” (PLoS ONE, 2012).
